Assay results taken from US20220298107A1, “SUBSTITUTED UREA DIHYDROOROTATE DEHYDROGENASE INHIBITORS” (Janssen Biotech, Inc., priority 2019, published 2022).

Tests used:
MOLM-13 cells = assay: MOLM-13 Cellular Assay; format: cell-based; details: Homo sapiens, MOLM-13, 72 h, read-out: MOLM-13 Cellular Assay EC50 (nM)
Experimental: MOLM-13 cells were obtained from DSMZ and were maintained in RPMI 1640+Glutamax+25 mM HEPES (Invitrogen, catalog number 72400) supplemented with 10% heat inactivated fetal bovine serum (FBS; Invitrogen, catalog number 16140). The day prior to assay set-up, cells were pelleted, resuspended in fresh media, counted, and cells were plated at 0.4×10^6 cell/mL in a T150 flask. On the day of the assay, cells were pelleted, resuspend in fresh media, counted and seeded at 5,000 cells/well in white opaque 96-well tissue culture treated microplates (Perkin Elmer, catalog number 6005680). Cells were exposed to different concentrations of test compounds at 37° C., 5% CO2 for 72 hours immediately after seeding. Cell viability was acquired on a Perkin Elmer Envision 2104 multilabel reader using the CellTiter-Glo assay (Promega) according to the manufacturer's instructions.

human DHODH = human DHODH (Homo sapiens, UniProt Q02127); assay: biochemical
Chain of human DHODH (Q02127 whole entry): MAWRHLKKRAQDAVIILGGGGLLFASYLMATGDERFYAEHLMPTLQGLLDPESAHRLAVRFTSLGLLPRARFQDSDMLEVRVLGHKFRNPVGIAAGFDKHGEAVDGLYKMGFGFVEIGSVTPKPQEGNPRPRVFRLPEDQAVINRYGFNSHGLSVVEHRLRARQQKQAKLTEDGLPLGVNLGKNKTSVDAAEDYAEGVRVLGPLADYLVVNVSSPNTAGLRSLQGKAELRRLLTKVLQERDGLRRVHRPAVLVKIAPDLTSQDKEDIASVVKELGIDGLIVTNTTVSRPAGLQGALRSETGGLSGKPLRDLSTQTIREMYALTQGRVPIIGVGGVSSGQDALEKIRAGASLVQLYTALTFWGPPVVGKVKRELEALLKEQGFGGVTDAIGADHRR
Experimental: To detect DHODH enzyme activities, dichloroindophenol (DCIP) is added as the final electron acceptor in the assay. DCIP can accept electrons from the reduced coenzyme Q generated in the assay, or from dihydroorotate (DHO) via flavin mononucleotide (FMN) by binding presumably to the ubiquinone pocket. […] The assay buffer contained […], pH 7.5, 150 mM NaCl, 0.5 mM EDTA, and 0.1% Triton X-100 in MilliQ water. Substrate consisting of 20 mM DHO, 5 mM CoQ6, and 1 mM DCIP in assay buffer, initiates the reaction. […] Absorbance measurements were obtained using the BMG Phera Star plate-reading spectrophotomer. Purified human DHODH was purchased from Proteros (cat. No. PR-0044). Chemicals were purchased from Sigma-Aldrich, Teknova, and Avanti Polar Lipids. Liquid handling was performed using Labcyte Echo and Formulatrix Tempest.

| EC50 (MOLM-13 cells) [nM] | EC50 (human DHODH) [µM] | Structure (SMILES) |
| --- | --- | --- |
| 5.8 | 0.013 | C[C@H](Oc1cc(NC(=O)N2CCC(F)C2)c(F)cc1C(=O)Nc1c(F)cccc1Cl)C(F)(F)F (stereo partly drawn) [Example 32, N-(4-((2-Chloro-6-fluorophenyl)carbamoyl)-2-fluoro-5-(((S)-1,1,1-trifluoropropan-2-yl)oxy)phenyl)-3-fluoropyrrolidine-1-carboxamide] |
| 2.1 | 0.0073 | CCN(C(=O)Nc1cc(O[C@@H](C)C(F)(F)F)c(C(=O)Nc2c(F)cccc2Cl)cc1F)C(C)C [Example 4, (S)-N-(2-Chloro-6-fluorophenyl)-4-(3-ethyl-3-isopropylureido)-5-fluoro-2-((1,1,1-trifluoropropan-2-yl)oxy)benzamide] |
| 89 | 0.49 | CC(C)NC(=O)Nc1cc(O[C@@H](C)C(F)(F)F)c(C(=O)Nc2c(F)cccc2Cl)cc1F [Example 9, (S)-N-(2-Chloro-6-fluorophenyl)-5-fluoro-4-(3-isopropylureido)-2-((1,1,1-trifluoropropan-2-yl)oxy)benzamide] |
| 16 | 0.00017 | COc1nccc(C)c1NC(=O)c1cc(F)c(NC(=O)N2CCC[C@@H]2CO)cc1O[C@@H](C)C(F)(F)F [Example 38, (R)-N-(2-Fluoro-4-((2-methoxy-4-methylpyridin-3-yl)carbamoyl)-5-(((S)-1,1,1-trifluoropropan-2-yl)oxy)phenyl)-2-(hydroxymethyl)pyrrolidine-1-carboxamide] |
| 40 | 0.085 | COC1CCN(C(=O)Nc2cc(O[C@@H](C)C(F)(F)F)c(C(=O)Nc3c(F)cccc3Cl)cc2F)C1 (stereo partly drawn) [Example 29, N-(4-((2-Chloro-6-fluorophenyl)carbamoyl)-2-fluoro-5-(((S)-1,1,1-trifluoropropan-2-yl)oxy)phenyl)-3-methoxypyrrolidine-1-carboxamide] |
